Reference: US11034702B2, “Thienoisoquinolines and their derivatives for the treatment of cancer” (VALORBEC, SOCIÉTÉ EN COMMANDITE, priority 2016, dated 2021)
“Also recorded” adds a separate entry of the source.

What was measured:
[1] = test system: HeLa (cervical adenocarcinoma) cells; experiment: IC50 (viability) in HeLa cells; assay type: cell-based, human
Description: 19 variants with different structural modifications have been made. […] In particular, it is shown that C75 causes death in multiple cancer cells with IC50 values in the 100 nM range, including breast cancers (MCF7, BT549), lung cancer (A549), colorectal cancer (HCT116) in addition to HeLa cells (cervical cancer).

HFF1 cells = experiment: Mitotic spindle phenotype in HFF1 cells; assay type: cell-based
Description: There were more rounded mitotic cells after C75 treatment in comparison to the control. FIG. 1B) is a line graph showing the percentage of HeLa and HFF1 cells in mitosis after treatment with various concentrations of C75 for 8 hours. The bars indicate standard deviation. FIG. 1C) is a series of images showing cells that were fixed and co-stained for tubulin (microtubules) and DAPI (DNA). Treatment of HeLa cells with 300 nM C75 caused the mitotic spindles to be disorganized, while they were not affected in HFF1 cells. […] The scale bar for the cells is 10 μm. FIG. 1D) is a cartoon schematic showing the key features of a metaphase cell.
FIG. 2A) is a line graph showing the percentage of HCT116 (p53−/−) cells, A549 cells, HeLa cells and H1299 cells in mitosis after treatment with various concentrations of C75 for one population doubling time. All of the cell lines show an increase in the proportion of mitotic cells after treatment with 200 nM C75. The bars indicate standard deviation. […]
(§1) C75 was also tested for efficacy in different cancer cell lines. […] To further assess the role of C75 in affecting centrosomes, HeLa cells were treated with C75 for a short period of time (5 minutes), then C75 was removed and the cells were analyzed for spindle phenotypes (schematic in FIG. 2D). […]

H1299 cells = experiment: Mitotic spindle phenotype in H1299 cells; assay type: cell-based, human; conditions: H1299, 300 nM, 6-8 hours
Description: (§2) FIG. 2A) is a line graph showing the percentage of HCT116 (p53−/−) cells, A549 cells, HeLa cells and H1299 cells in mitosis after treatment with various concentrations of C75 for one population doubling time. All of the cell lines show an increase in the proportion of mitotic cells after treatment with 200 nM C75. The bars indicate standard deviation. […] While the mitotic spindles were not dramatically altered by C75 in HFF1 cells, they were monopolar (as shown) or fragmented in the other cell types. […] The mitotic spindles were more strongly fragmented after C75 treatment in these cells vs. the cells in FIG. 2B). […] While mitotic spindles recovered bipolarity after removing nocodazole, they remained multipolar after removing C75. FIG. 2F) is a series of time-lapse images of a live HeLa cell expressing GFP:tubulin after treatment with C75 as shown in 2D) and 2E). The scale bar for all cells is 10 μm. FIG. 2G) is a schematic showing the putative target for C75. […]
as §1

MCF-10A cells = experiment: Mitotic spindle phenotype in MCF-10A cells; assay type: cell-based; conditions: 300 nM, 6-8 hours
Description: as §2, §1

COc1ccc(S(=O)(=O)N2Cc3ccccc3-c3sc(Br)cc32)cc1 [Compound C75]
IC50 ([1]; Homo sapiens, HeLa cells, cells printed in nM): 27 nM | efficacy (effect on viability) in cancer cells vs. non-cancer cells ([1]; comparison of Table 3 IC50 values, cancer vs. non-cancer cells): higher efficacy | mitotic spindle phenotype (HFF1 cells; HFF1, 300 nM): not affected; also recorded: majority of HFF1 cells had bipolar spindles | mitotic spindle phenotype (HFF1 cells; HFF1, 750 nM): disorganized | mitotic spindle phenotype (H1299 cells): mix of monopolar, bipolar and multipolar spindles | mitotic spindle phenotype (MCF-10A cells): mix of monopolar, bipolar and multipolar spindles
